According to patent US8138168B1 (Takeda Pharmaceutical Company Limited, priority 2007, dated 2012):
pIC50: −log10 of the molar value.

Target: T1, Recombinant human renin (Homo sapiens, UniProt P00797)
T1 construct: isolate the active form (residues 67-406); made in house; host or cells: FreeStyle 293-F cells (transient expression of pcDNA3.1(+)/hREN)
T1 sequence (P00797 67-406): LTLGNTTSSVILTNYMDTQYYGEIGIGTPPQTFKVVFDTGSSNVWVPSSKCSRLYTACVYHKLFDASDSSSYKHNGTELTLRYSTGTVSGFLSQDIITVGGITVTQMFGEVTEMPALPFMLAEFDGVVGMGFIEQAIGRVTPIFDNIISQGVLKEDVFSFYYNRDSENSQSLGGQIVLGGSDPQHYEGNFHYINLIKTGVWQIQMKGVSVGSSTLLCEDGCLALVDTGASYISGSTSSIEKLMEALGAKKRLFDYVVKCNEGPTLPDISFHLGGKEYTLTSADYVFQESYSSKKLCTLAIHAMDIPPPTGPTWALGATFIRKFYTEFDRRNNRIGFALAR
Assay: In vitro enzymatic activity assay of renin inhibitors (fluorogenic peptide substrate)
Assay type: biochemical
Conditions: read-out: IC50 of Exemplified Compounds Against Renin
Procedure, shortened: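 Enzyme: recombinant human renin, 3 nM final, 10 min compound pre-incubation at 37 °C; buffer 50 mM Hepes pH 7.4 with 0.1 mg/mL BSA or extra 2% BSA; 5% DMSO.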

SMILES | pIC50
N[C@@H](CC(=O)N1CCCC(c2nc3ccccc3[nH]2)C1)c1cccc(Cl)c1Cl (stereo partly drawn) [Compound 37, (3S)-1-(3-(1H-benzo[d]imidazol-2-yl)piperidin-1-yl)-3-amino-3-(2,3-dichlorophenyl)propan-1-one] | < 6.00
COCCCn1c([C@@H]2CCCN(C(=O)C[C@@H](N)Cc3ccc(Cl)cc3)C2)nc2ccccc21 [Compound 69, (S)-3-amino-4-(4-chlorophenyl)-1-((R)-3-(1-(3-methoxypropyl)-1H-benzo[d]imidazol-2-yl)piperidin-1-yl)butan-1-one] | < 6.00
N[C@@H](CC(=O)N1CCCC(c2nc3ccccc3[nH]2)C1)c1cccc(Cl)c1 (stereo partly drawn) [Compound 30, (3S)-1-(3-(1H-benzo[d]imidazol-2-yl)piperidin-1-yl)-3-amino-3-(3-chlorophenyl)propan-1-one] | < 6.00
COCCCn1c([C@@H]2CCCN(C(=O)[C@@H]3CN(C(=O)c4cccc(F)c4)C[C@H]3N)C2)nc2ccccc21 [Compound 393, ((3R,4S)-4-amino-1-(3-fluorobenzoyl)pyrrolidin-3-yl)((R)-3-(1-(3-methoxypropyl)-1H-benzo[d]imidazol-2-yl)piperidin-1-yl)methanone] | < 6.00
COCCCn1c([C@@H]2CCCN(C(=O)[C@@H]3CN(C(=O)c4ccccc4)C[C@H]3N)C2)nc2ccccc21 [Compound 385, ((3R,4S)-4-amino-1-benzoylpyrrolidin-3-yl)((R)-3-(1-(3-methoxypropyl)-1H-benzo[d]imidazol-2-yl)piperidin-1-yl)methanone] | < 6.00
COCCCn1c([C@@H]2CCCN(C(=O)[C@@H]3CN(S(=O)(=O)c4ccccc4C(F)(F)F)C[C@H]3N)C2)nc2ccccc21 [Compound 402, ((3R,4S)-4-amino-1-(2-(trifluoromethyl)phenylsulfonyl)pyrrolidin-3-yl)((R)-3-(1-(3-methoxypropyl)-1H-benzo[d]imidazol-2-yl)piperidin-1-yl)methanone] | < 6.00
N[C@@H](CC(=O)N1CCCC(c2nc3ccccc3[nH]2)C1)Cc1ccc2ccccc2c1 (stereo partly drawn) [Compound 44, (3R)-1-(3-(1H-benzo[d]imidazol-2-yl)piperidin-1-yl)-3-amino-4-(naphthalen-2-yl)butan-1-one] | < 6.00
COCCCn1c([C@@H]2CCCN(C(=O)[C@@H]3CN(S(=O)(=O)c4ccc(C#N)cc4Cl)C[C@H]3N)C2)nc2ccccc21 [Compound 391, 4-((3S,4R)-3-amino-4-((R)-3-(1-(3-methoxypropyl)-1H-benzo[d]imidazol-2-yl)piperidine-1-carbonyl)pyrrolidin-1-ylsulfonyl)-3-chlorobenzonitrile] | < 6.00
O=C(Nc1ccc2c(c1)CCC2)N1CCCC(c2nc3ccccc3[nH]2)C1 (stereo not drawn) [Compound 9, 3-(1H-benzo[d]imidazol-2-yl)-N-(2,3-dihydro-1H-inden-5-yl)piperidine-1-carboxamide] | < 6.00
COCCCn1c([C@@H]2CCCN(C(=O)[C@@H]3CN(C(=O)CC4CCCCC4)C[C@H]3N)C2)nc2ccccc21 [Compound 397, l-((3S,4R)-3-amino-4-((R)-3-(1-(3-methoxypropyl)-1H-benzo[d]imidazol-2-yl)piperidine-1-carbonyl)pyrrolidin-1-yl)-2-cyclohexylethanone] | < 6.00
N[C@@H](CC(=O)N1CCCC(c2nc3ccccc3[nH]2)C1)Cc1ccccc1Cl (stereo partly drawn) [Compound 27, (3R)-1-(3-(1H-benzo[d]imidazol-2-yl)piperidin-1-yl)-3-amino-4-(2-chlorophenyl)butan-1-one] | < 6.00
CNC(Cc1ccccc1)C(=O)N1CCCC(c2nc3ccccc3[nH]2)C1 (stereo not drawn) [Compound 64, 1-(3-(1H-benzo[d]imidazol-2-yl)piperidin-1-yl)-2-(methylamino)-3-phenylpropan-1-one] | < 6.00

Other lines, results leading:

pIC50 | SMILES
> 7.00 | COCCCn1c([C@@H]2CCCN(C(=O)C[C@H](N)Cc3ccc(-n4c(=O)n(CCO)c5ccccc54)cc3)C2)nc2ccccc21 [Compound 222, 1-(4-((R)-2-amino-4-((R)-3-(1-(3-methoxypropyl)-1H-benzo[d]imidazol-2-yl)piperidin-1-yl)-4-oxobutyl)phenyl)-3-(2-hydroxyethyl)-1H-benzo[d]imidazol-2(3H)-one]
< 6.00 | N[C@@H](CC(=O)N1CCCC(c2nc3ccccc3[nH]2)C1)c1ccc(Cl)cc1Cl (stereo partly drawn) [Compound 35, (3S)-1-(3-(1H-benzo[d]imidazol-2-yl)piperidin-1-yl)-3-amino-3-(2,4-dichlorophenyl)propan-1-one]
> 7.00 | COCCCn1c([C@@H]2CCCN(C(=O)C[C@H](N)Cc3ccc(-c4ccc(NC(=O)CO)cc4)cc3)C2)nc2ccccc21 [Compound 198, N-(4′-((R)-2-Amino-4-((R)-3-(1-(3-methoxypropyl)-1H-benzo[d]imidazol-2-yl)piperidin-1-yl)-4-oxobutyl)biphenyl-4-yl)-2-hydroxyacetamide]
6.00 to 7.00 | COCCCn1c([C@@H]2CCCN(C(=O)C[C@H](N)CNC(=O)c3ccc(C)c(C)c3)C2)nc2ccccc21 [Compound 293, N-((S)-2-amino-4-((R)-3-(1-(3-methoxypropyl)-1H-benzo[d]imidazol-2-yl)piperidin-1-yl)-4-oxobutyl)-3,4-dimethylbenzamide]
6.00 to 7.00 | CC(=O)NCCn1c([C@@H]2CCCN(C(=O)C[C@H](N)Cc3ccc(-c4ccc(N)nc4)cc3)C2)nc2c(C)cccc21 [Compound 471, N-(2-(2-((R)-1-((R)-3-amino-4-(4-(6-aminopyridin-3-yl)phenyl)butanoyl)piperidin-3-yl)-4-methyl-1H-benzo[d]imidazol-1-yl)ethyl)acetamide]
> 7.00 | COCCCn1c([C@@H]2CCCN(C(=O)C[C@H](N)Cc3ccc(-c4ccc5c(c4)OCC(=O)N5)cc3)C2)nc2c(C)cccc21 [Compound 497, 7-(4-((R)-2-amino-4-((R)-3-(1-(3-rnethoxypropyl)-4-methyl-1H-benzo[d]imidazol-2-yl)piperidin-1-yl)-4-oxobutyl)phenyl)-2H-benzo[b][1,4]oxazin-3(4H)-one]
> 7.00 | COCCCn1c([C@@H]2CCCN(C(=O)C[C@H](N)CNC(=O)Nc3cccc(Cl)c3)C2)nc2ccccc21 [Compound 256, 1-((S)-2-ainino-4-((R)-3-(1-(3-methoxypropyl)-1H-benzo[d]imidazol-2-yl)piperidin-1-yl)-4-oxobutyl)-3-(3-chlorophenyl)urea]
> 7.00 | COCCCn1c([C@@H]2CCCN(C(=O)C[C@H](N)Cc3ccc(-c4ccc(NC(C)=O)cc4)cc3)C2)nc2c(F)cccc21 [Compound 491, N-(4′-((R)-2-amino-4-((R)-3-(4-fluoro-1-(3-methoxypropyl)-1H-benzo[d]imidazol-2-yl)piperidin-1-yl)-4-oxobutyl)biphenyl-4-yl)acetamide]
> 7.00 | COCCCn1c([C@@H]2CCCN(C(=O)C[C@H](N)Cc3ccc(-c4ccc5c(c4)NC(=O)C5)cc3)C2)nc2c(F)cccc21 [Compound 459, 6-(4-((R)-2-amino-4-((R)-3-(4-fluoro-1-(3-methoxypropyl)-1H-benzo[d]imidazol-2-yl)piperidin-l-yl)-4-oxobutyl)phenyl)indolin-2-one]
6.00 to 7.00 | COCCCn1c([C@@H]2CCCN(C(=O)[C@@H]3CN(S(=O)(=O)c4ccccc4OC)C[C@H]3N)C2)nc2ccccc21 [Compound 379, ((3R,4S)-4-amino-1-(2-methoxyphenylsulfonyl)pyrrolidin-3-yl)((R)-3-(1-(3-methoxypropyl)-1H-benzo[d]imidazol-2-yl)piperidin-1-yl)methanone]
> 7.00 | COCCCn1c([C@@H]2CCCN(C(=O)C[C@H](N)Cc3ccc(-n4c(=O)n(CCOC)c5ccccc54)cc3)C2)nc2ccccc21 [Compound 214, 1-(4-((R)-2-amino-4-((R)-3-(1-(3-methoxypropyl)-1H-benzo[d]imidazol-2-yl)piperidin-1-yl)-4-oxobutyl)phenyl)-3-(2-methoxyethyl)-1H-benzo[d]imidazol-2(3H)-one]
6.00 to 7.00 | CC(=O)NCCn1c([C@@H]2CCCN(C(=O)C[C@H](N)Cc3ccc(-c4ccc(N5CCNC5=O)cc4)cc3)C2)nc2ccccc21 [Compound 462, N-(2-(2-((R)-1-((R)-3-amino-4-(4′-(2-oxoimidazolidin-l-yl)biphenyl-4-yl)butanoyl)piperidin-3-yl)-1H-benzo[d]imidazol-1-yl)ethyl)acetamide]
6.00 to 7.00 | COCCCn1c([C@@H]2CCCN(C(=O)C[C@H](N)Cc3ccc(N4CCN(c5ccccc5)CC4)cc3)C2)nc2ccccc21 [Compound 231, (R)-3-amino-1((R)-3-(1-(3-methoxypropyl)-1H-benzo[d]imidazol-2-yl)piperidin-1-yl)-4-(4-(4-phenylpiperazin-1-yl)phenyl)butan-1-one]
6.00 to 7.00 | COCCCn1c([C@@H]2CCCN(C(=O)C[C@H](N)c3cccc(C(F)(F)F)c3)C2)nc2ccccc21 [Compound 84, (S)-3-amino-1-((R)-3-(1-(3-methoxypropyl)-1H-benzo[d]imidazol-2-yl)piperidin-1-yl)-3-(3-(trifluoromethyl)phenyl)propan-1-one]
6.00 to 7.00 | COCCCn1c([C@@H]2CCCN(C(=O)C[C@H](N)CNC(=O)c3cccc(N4CCCCC4)n3)C2)nc2ccccc21 [Compound 313, N-((S)-2-amino-4-((R)-3-(1-(3-methoxypropyl)-1H-benzo[d]imidazol-2-yl)piperidin-1-yl)-4-oxobutyl)-6-(piperidin-1-yl)picolinamide]
